Fraction unbound and IC50 data for 18 molecules are collected here from patent publication US11945812B2, “Annulated 2-amino-3-cyano thiophenes and derivatives for the treatment of cancer” (Boehringer Ingelheim International GmbH, priority 2020, dated 2024).

Data set [1] in a line: Plasma protein binding (equilibrium dialysis), human plasma. Format: in vitro ADME. To be noted: read-out: PPB human fu. The method, then: (§1) Plasma Protein Binding (PPB)
(§2) Binding of test compound to plasma was determined using equilibrium dialysis (ED) and quantitative mass spectrometry interfaced with liquid chromatography (LC-MS). In brief, ED was performed with dialysis devices consisting of two chambers separated by a semipermeable membrane with a molecular weight cut-off of 5-10 kg/mol. One chamber was filled with commercially sourced plasma (mouse and human plasma, respectively) or serum (10% FCS in PBS) containing 1-10 μmol/L test compound and the other chamber was filled with phosphate-buffer saline (PBS) with or without dextran. The dialysis chamber was incubated for 3-5 hours at 37° C. After incubation, protein was precipitated from aliquots of each chamber and the concentration of test compound in the supernatant of the plasma-containing compartment (cplasma) and of the buffer-containing compartment (Cbuffer) was determined by LC-MS. The fraction of unbound test compound (not bound to plasma) (fu) was calculated according to the following equation: […]

Data set [2] in a line: Plasma protein binding (equilibrium dialysis), serum 10% FCS in PBS. The format is in vitro ADME. To be noted: bovine, 10% FCS in PBS (serum), read-out: PPB 10% FCS fu. The protocol:
as §1, §2

A further data set deals with SW837 cells. The data set is described as follows: SW837 CTG proliferation assay (CRC). To be noted: Homo sapiens; SW837 CTG proliferation; read-out: IC50 SW837. The format is cell-based. The protocol: SW837 CTG Proliferation Assay (CRC)
SW837 cells (ATCC #CCL-235) were grown in cell culture flasks (175 cm^2) using L-15 10% FCS, 1% L-Glu, 1×NEAA and 1×Na-Pyrovat. Cultures were incubated at 37° C. and 0% CO2 in a humidified atmosphere, with medium change or subcultivation 2-3 times a week. Materials used for the assay were CulturPlate-384, White Opaque 384-well Microplate, Sterile and Tissue Culture Treated (Perkin Elmer #6007680), Leibovitz L15 Medium and FBS # SH30071.03 (HyClone).
(§3) The proliferation assays started (day1) with seeding cells in flat bottom 384 well microtiter plates in 90 μL L-15 10% FCS, 1% L-Glu, 1×NEAA and 1× Na-Pyrovat at a density of 500 cells/well. Any other luminescence compatible plate format is possible. On day 2, 10 μL dilutions of the test compounds covering a concentration range between app. 0, 1 and 10.000 nM were added to the cells. Cells were incubated for 5 days in a humidified, CO2 controlled (no CO2) incubator at 37° C. On day 7 100 μL of Cell Titer Glow reagent (Cell titer Glo Luminescent Cat. No. G7571, Promega) were added to each well and incubated for additional 10 min at room temperature (with agitation). Luminescence was measured on a Wallac Victor using standard luminescence read out. IC50 values were calculated using standard Levenburg Marquard algorithms (GraphPad Prism).

The subject of the next data set is MiaPaCa-2 cells. Put plainly: MiaPaCa-2 CTG proliferation assay (pancreatic cancer). The format is cell-based. To be noted: Homo sapiens, MIA PaCa-2, 120 h; MiaPaCa-2 CTG proliferation, 5 days; read-out: IC50 MiaPACA2. The protocol: MiaPaCa-2 CTG Proliferation Assay (Pancreatic Cancer)
MiaPaCa-2 cells (ATCC® CRM-CRL-1420™) were grown in cell culture flasks (175 cm^2) using DMEM medium supplemented with 10% fetal bovine serum. […] Materials used for the assay were CulturPlate-384, White Opaque 384-well microplate, Sterile and Tissue Culture Treated (Perkin Elmer #6007680), DMEM medium and FBS # SH30071.03 (HyClone).
as §3, with “μL DMEM medium supplemented with” for “μL L-15”, “10% FBS” for “10% FCS, 1% L-Glu, 1×NEAA and 1× Na-Pyrovat”, “humidified, incubator with 5%” for “humidified,”, “CO2” for “CO2 controlled (no CO2) incubator”, “100 μl” for “100 μL”

In data set [3] the test system is ERK phosphorylation in NCI-H358_Cas9_SOS2. The data set is described as follows: ERK phosphorylation assay 2 (AlphaLISA SureFire Ultra p-ERK1/2), SOS2 knock-out. To be noted: Homo sapiens, NCI-H358; assay 2 (marked with *); read-out: IC50 H358 pERK. Format: cell-based. The source says: ERK Phosphorylation Assay
Materials Used for the Assay;

Structures are written as SMILES.

On to `C=CC(=O)N1CCN(c2cc(O[C@@H](C)[C@@H]3CCCN3C)nc(-c3cc([C@@]4(C)CCCc5sc(N)c(C#N)c54)on3)n2)[C@H](C)C1` [Ib-1], for which the fraction unbound worked out at 0.032 in data set [1] and 0.075 in data set [2]. Besides, the IC50 in the data set on SW837 cells was 0.67 nM; in the data set on MiaPaCa-2 cells, 22.6 nM; in data set [3], 1.7 nM.

Take `C=CC(=O)N1[C@@H](C)CN(c2cc(O[C@@H](C)[C@@H]3CCCN3C)nc(-c3cc([C@@]4(C)CCCc5sc(N)c(C#N)c54)on3)n2)C[C@@H]1C` [Ib-4]: the fraction unbound was determined as 0.021 in data set [1] and 0.055 in data set [2]. For the same molecule, the IC50 with SW837 cells was 0.69 nM; in the data set with MiaPaCa-2 cells, 20.1 nM; in data set [3], 2.4 nM.

For the molecule `C=CC(=O)N1CCN(c2cc(O[C@@H](C)[C@@H]3CCCN3C)nc(-c3cc([C@@]4(C)CCCc5sc(N)c(C#N)c54)on3)n2)CC12CC2` [Ib-5], the fraction unbound in data set [1] amounted to 0.019; in data set [2] it was 0.058. The IC50 in the data set with SW837 cells was found to be 15.8 nM; in the data set with MiaPaCa-2 cells it was 28 nM; in data set [3], 6.7 nM.

In the case of `C=CC(=O)N1CCN(c2cc(O[C@@H](C)[C@@H]3CCCN3C)nc(-c3cc(C4(C)CCCc5sc(N)c(C#N)c54)on3)n2)CC1` (stereo partly shown) [Ib-6], the fraction unbound in data set [1] is 0.059; in data set [2] it was 0.167. Also, the results for the IC50 (in the data set with SW837 cells; with MiaPaCa-2 cells; in data set [3]) were below 1 nM, 9 nM and 2 nM, respectively.

On to `C=C(F)C(=O)N1CCN(c2cc(O[C@@H](C)[C@@H]3CCCN3C)nc(-c3cc([C@@]4(C)CCCc5sc(N)c(C#N)c54)on3)n2)[C@H](C)C1` [Ib-10], for which the fraction unbound in data set [1] came to 0.013; in data set [2] it was 0.063. Besides, the IC50 was found to be 14.9 nM with SW837 cells, 56.8 nM in the data set with MiaPaCa-2 cells and 32.8 nM in data set [3].

`C=C(F)C(=O)N1[C@@H](C)CN(c2cc(O[C@@H](C)[C@@H]3CCCN3C)nc(-c3cc([C@@]4(C)CCCc5sc(N)c(C#N)c54)on3)n2)C[C@@H]1C` [Ib-11]: the fraction unbound in data set [2] was found to be 0.045. Also, the half-maximal inhibitory concentration (IC50) in the data set on SW837 cells amounted to 5.63 nM; with MiaPaCa-2 cells, 105 nM; in data set [3], 44.4 nM.

Consider `COC/C=C/C(=O)N1CCN(c2cc(O[C@@H](C)[C@@H]3CCCN3C)nc(-c3cc([C@@]4(C)CCCc5sc(N)c(C#N)c54)on3)n2)[C@H](C)C1` [Ib-14], for which the fraction unbound amounted to 0.016 in data set [1] and 0.066 in data set [2]. Moreover, the IC50 in the data set on SW837 cells came to 11.3 nM; in the data set on MiaPaCa-2 cells it was 36 nM; in data set [3], 12.6 nM.

As to `C=CC(=O)N1CCN(c2cc(O[C@@H](C)[C@@H]3CCCN3C)nc(-c3cc([C@@]4(C)CCCc5sc(N)c(C#N)c54)no3)n2)CC12CC2` [Ic-3], the fraction unbound in data set [1] turned out to be 0.028; in data set [2] it was 0.109. The IC50 turned out to be 10.6 nM in the data set on SW837 cells, 123 nM in the data set on MiaPaCa-2 cells and 12.3 nM in data set [3].

On to `C=CC(=O)N1[C@@H](C)CN(c2cc(O[C@@H](C)[C@@H]3CCCN3C)nc(-c3cc([C@@]4(C)CCCc5sc(N)c(C#N)c54)no3)n2)C[C@@H]1C` [Ic-4], for which the fraction unbound stood at 0.027 in data set [1] and 0.083 in data set [2]. The IC50 turned out to be 1.62 nM in the data set on SW837 cells, 6.87 nM in the data set with MiaPaCa-2 cells and 3.4 nM in data set [3].

As for `C=CC(=O)N1[C@H](C)CN(c2cc(O[C@@H](C)[C@@H]3CCCN3C)nc(-c3cc([C@@]4(C)CCCc5sc(N)c(C#N)c54)no3)n2)C[C@@H]1C` [Ic-5], the fraction unbound in data set [1] came out at 0.02; in data set [2], 0.148. The IC50 in the data set with SW837 cells is 7.15 nM; in the data set on MiaPaCa-2 cells, 47.9 nM; in data set [3], 13.1 nM.

Consider `C=CC(=O)N1CCC(Oc2cc(N3CCN(C)C[C@@H]3C)nc(-c3cc(C4(C)CCCc5sc(N)c(C#N)c54)no3)n2)CC1` (stereo partly shown) [Ic-7], for which the fraction unbound in data set [1] was 0.02; in data set [2], 0.252. In addition, the values for the IC50 (in the data set on SW837 cells; with MiaPaCa-2 cells; in data set [3]) were 44.7 nM, 332 nM and 56.8 nM, respectively.

As to `C=C(F)C(=O)N1[C@@H](C)CN(c2cc(O[C@@H](C)[C@@H]3CCCN3C)nc(-c3cc([C@@]4(C)CCCc5sc(N)c(C#N)c54)no3)n2)C[C@@H]1C` [Ic-8], in data set [2], the fraction unbound is 0.078. Moreover, the 50% inhibitory concentration (IC50) with SW837 cells was found to be 36.6 nM; in the data set with MiaPaCa-2 cells, 396 nM; in data set [3], 134 nM.

As for `COC/C=C/C(=O)N1CCN(c2cc(O[C@@H](C)[C@@H]3CCCN3C)nc(-c3cc(C4(C)CCCc5sc(N)c(C#N)c54)no3)n2)CC1` (stereo partly shown) [Ic-9], the fraction unbound in data set [1] came out at 0.043; in data set [2], 0.259. The IC50 is 124 nM in the data set with SW837 cells, 332 nM in the data set on MiaPaCa-2 cells and 46.2 nM in data set [3].

Take `C=CC(=O)N1CCN(c2cc(O[C@@H](C)[C@@H]3CCCN3C)nc(-c3cc([C@@]4(C)CCCc5sc(N)c(C#N)c54)sn3)n2)CC1` [Id-1]: in data set [2], the fraction unbound was determined as 0.476. Also, the values for the IC50 (in the data set on SW837 cells; in the data set on MiaPaCa-2 cells; in data set [3]) were 0.2 nM, 2.25 nM and 0.7 nM, respectively.

For `C=CC(=O)N1[C@H](C)CN(c2cc(O[C@@H](C)[C@@H]3CCCN3C)nc(-c3cc([C@@]4(C)CCCc5sc(N)c(C#N)c54)sn3)n2)C[C@@H]1C` [Id-2], the values for the fraction unbound in data set [1] and in data set [2] were 0.009 and 0.434, respectively. The half-maximal inhibitory concentration (IC50) came out at 1.09 nM in the data set with SW837 cells, 21.3 nM in the data set with MiaPaCa-2 cells and 5.4 nM in data set [3].

`C=CC(=O)N1[C@@H](C)CN(c2cc(O[C@@H](C)[C@@H]3CCCN3C)nc(-c3cc([C@@]4(C)CCCc5sc(N)c(C#N)c54)sn3)n2)C[C@@H]1C` [Id-4]: the fraction unbound in data set [1] came to 0.014; in data set [2] it was 0.371. Besides, the values for the IC50 (with SW837 cells; in the data set on MiaPaCa-2 cells; in data set [3]) were 0.68 nM, 15.3 nM and 2.2 nM, respectively.

As for `C=CC(=O)N1CCN(c2cc(O[C@@H](C)[C@@H]3CCCN3C)nc(-c3cc([C@@]4(C)CCCc5sc(N)c(C#N)c54)sn3)n2)CC12CC2` [Id-5], in data set [2], the fraction unbound amounted to 0.338. The IC50 in the data set with SW837 cells turned out to be 0.8 nM; in the data set on MiaPaCa-2 cells, 26.9 nM; in data set [3], 3.1 nM.

For the molecule `C=CC(=O)N1CCC(Oc2cc(O[C@@H](C)[C@@H]3CCCN3C)nc(-c3cc([C@@]4(C)CCCc5sc(N)c(C#N)c54)sn3)n2)CC1` [Id-6], the fraction unbound in data set [2] is 0.521. In addition, the IC50 in the data set on SW837 cells is 0.35 nM; in the data set with MiaPaCa-2 cells, 13.8 nM; in data set [3] it was 1.1 nM.
